Results: ChEMBL document CHEMBL5346899, “PKM2/PDK1 dual-targeted shikonin derivatives restore the sensitivity of EGFR-mutated NSCLC cells to gefitinib by remodeling glucose metabolism” (Eur J Med Chem, 2023)
The source made the active and inactive calls. No cut-off for these calls is given here.

Columns and labels:
NCI-H1975 [1] = assay: Induction of apoptosis in human NCI-H1975 cells assessed as late apoptotic cells at 10 micromol/L incubated for 24 hrs by Annexin V-FITC/PI staining based analysis (reference value: 8.61%); format: functional; settings: dose 10 µmol/L, at 10 µM
NCI-H1975 [2] = assay: Induction of apoptosis in human NCI-H1975 cells assessed as dead cells at 0.5 micromol/L incubated for 24 hrs by Annexin V-FITC/PI staining based analysis (reference value: 0.103%); format: functional; settings: dose 0.5 µmol/L, at 0.5 µM
Pyruvate kinase PKM [3] = target: T1, Pyruvate kinase PKM (Homo sapiens, UniProt P14618); assay: Activation of PKM2 in human NCI-H1975 cells at 1 to 2 micromol/L by Western blot analysis; format: cell-based; settings: filed as activator, dose 1-2 µmol/L
Target sequence in this assay (P14618 2-531 limits assumed): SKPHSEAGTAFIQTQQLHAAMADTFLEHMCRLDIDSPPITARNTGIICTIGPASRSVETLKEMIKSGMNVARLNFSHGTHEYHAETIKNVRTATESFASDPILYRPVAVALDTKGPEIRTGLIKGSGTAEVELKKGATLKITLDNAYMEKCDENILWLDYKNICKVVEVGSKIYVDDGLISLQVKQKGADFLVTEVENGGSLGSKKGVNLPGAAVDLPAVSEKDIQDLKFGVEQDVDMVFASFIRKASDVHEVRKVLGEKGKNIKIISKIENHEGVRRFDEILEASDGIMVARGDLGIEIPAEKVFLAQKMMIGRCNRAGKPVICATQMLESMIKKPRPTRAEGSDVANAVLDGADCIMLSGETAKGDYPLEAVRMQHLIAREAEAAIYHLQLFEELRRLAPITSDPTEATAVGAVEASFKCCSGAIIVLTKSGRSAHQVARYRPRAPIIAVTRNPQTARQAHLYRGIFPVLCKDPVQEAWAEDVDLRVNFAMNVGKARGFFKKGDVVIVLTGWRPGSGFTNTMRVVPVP

[4] = Acute toxicity in ICR mouse assessed as damage in vital organs at 2.4 to 38.4 mg/kg, ip measured after 15 days by H and E staining based analysis; format: organism-based; settings: in vivo, 360 h, dose 2.4-38.4 mg/kg, time 15 day
NCI-H1975 [5] = assay: Antiproliferative activity against siRNA mediated […] knockdown human NCI-H1975 cells assessed as inhibition of cell growth incubated for 24 hrs by CCK-8 assay; format: functional, cell-based; settings: NCI-H1975, 24 h
NCI-H1975 [6] = assay: Induction of mitochondrial transmembrane potential dissipation in human NCI-H1975 cells assessed as cells with low mitochondrial transmembrane potential at 0.5 micromol/L by FL-1/FL-2 channel based fluorescence analysis (reference value: 2.13%); format: functional; settings: dose 0.5 µmol/L; at 0.5 µM
NCI-H1975 [7] = assay: Induction of apoptosis in human NCI-H1975 cells assessed as early apoptotic cells at 1 micromol/L incubated for 24 hrs by Annexin V-FITC/PI staining based analysis (reference value: 1.88%); format: functional; settings: dose 1 µmol/L, at 1 µM
HCC827 = assay: Antiproliferative activity against human HCC827 cells assessed as inhibition of clone formation rate; format: functional, cell-based
Pyruvate kinase PKM [8] = target: T1, Pyruvate kinase PKM; assay: Binding affinity to PKM2 (unknown origin) assessed as dissociation constant associated for 60 secs and dissociated for 90 secs by bio-layer interferometry analysis
Target sequence in this assay (P14618 whole entry): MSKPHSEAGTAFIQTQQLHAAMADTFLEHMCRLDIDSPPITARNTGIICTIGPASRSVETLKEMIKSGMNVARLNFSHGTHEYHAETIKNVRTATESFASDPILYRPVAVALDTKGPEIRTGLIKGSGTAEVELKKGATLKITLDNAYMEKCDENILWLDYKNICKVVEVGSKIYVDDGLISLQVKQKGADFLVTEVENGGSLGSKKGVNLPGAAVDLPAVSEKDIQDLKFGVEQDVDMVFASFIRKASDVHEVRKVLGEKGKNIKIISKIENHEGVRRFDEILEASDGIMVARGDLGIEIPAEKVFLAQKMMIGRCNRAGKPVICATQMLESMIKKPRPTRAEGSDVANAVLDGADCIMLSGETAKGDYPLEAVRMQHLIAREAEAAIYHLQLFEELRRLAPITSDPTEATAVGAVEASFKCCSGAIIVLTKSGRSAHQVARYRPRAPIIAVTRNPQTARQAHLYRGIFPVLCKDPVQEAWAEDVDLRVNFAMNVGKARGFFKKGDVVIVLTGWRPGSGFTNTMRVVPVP

NCI-H1975 [9] = assay: Induction of mitochondrial transmembrane potential dissipation in human NCI-H1975 cells assessed as cells with high mitochondrial transmembrane potential at 1 micromol/L by FL-1/FL-2 channel based fluorescence analysis (reference value: 97.4%); format: functional; settings: dose 1 µmol/L; at 1 µM
A549 [10] = assay: Induction of apoptosis in human A549 cells assessed as late apoptotic cells at 1 micromol/L incubated for 24 hrs by Annexin V-FITC/PI staining based analysis (reference value: 3.18%); format: functional; settings: dose 1 µmol/L, at 1 µM
NCI-H1975 [11] = assay: Antiproliferative activity against siRNA mediated PKM2 knockdown human NCI-H1975 cells assessed as inhibition of cell growth incubated for 24 hrs by CCK-8 assay; format: functional, cell-based; settings: NCI-H1975, 24 h
NCI-H1975 [12] = assay: Induction of apoptosis in human NCI-H1975 cells assessed as late apoptotic cells at 2 micromol/L incubated for 24 hrs by Annexin V-FITC/PI staining based analysis (reference value: 2.66%); format: functional; settings: dose 2 µmol/L, at 2 µM
NCI-H1975 [13] = assay: Antitumor activity against human NCI-H1975 cells xenografted in athymic nu/nu mouse assessed as damage in tumor tissue at 2.4 to 4.8 mg/kg, ip administered every 2 days for 11 days by H and E staining based analysis; format: functional, organism-based; settings: dose 2.4-4.8 mg/kg, time 11.0 day
[14] = Toxicity in athymic nu/nu mouse xenografted with human NCI-H1975 cells assessed as reduction in body weight at 2.4 to 4.8 mg/kg, ip administered every 2 days for 11 days; format: organism-based; settings: in vivo, 264 h, dose 2.4-4.8 mg/kg, time 11 day
in vitro = settings: human, HEK293T cells
Description: Cytotoxicity against HEK293T cells assessed as inhibition of cell growth incubated for 24 hrs by CCK-8 assay

NCI-H1975 [15] = assay: Induction of apoptosis in human NCI-H1975 cells assessed as regulation of PARP expression by Western blot analysis; format: functional, cell-based
NCI-H1975 [16] = assay: Induction of apoptosis in human NCI-H1975 cells assessed as early apoptotic cells at 0.5 micromol/L incubated for 24 hrs in presence of gefitinib by Annexin V-FITC/PI staining based analysis (reference value: 2.55%); format: functional; settings: dose 0.5 µmol/L, at 0.5 µM
NCI-H1975 [17] = assay: Downregulation of PDK1 protein expression in human NCI-H1975 cells at 1 to 2 micromol/L by Western blot analysis; format: functional, cell-based; settings: dose 1-2 µmol/L
A549 [18] = assay: Induction of apoptosis in human A549 cells assessed as early apoptotic cells at 2 micromol/L incubated for 24 hrs by Annexin V-FITC/PI staining based analysis (reference value: […]%); format: functional; settings: dose 2 µmol/L
NCI-H1975 [19] = assay: Induction of apoptosis in human NCI-H1975 cells transfected with siRNA assessed as early apoptotic cells at 2 micromol/L incubated for 24 hrs by Annexin V-FITC/PI staining based analysis (reference value: 1.16%); format: functional; settings: dose 2 µmol/L, at 2 µM

With `COC(=O)[C@H](CS[C@H](CC=C(C)C)C1=CC(=O)c2c(O)ccc(O)c2C1=O)NC(=O)CCCC[C@@H]1CCSC(c2ccccc2C)S1` (stereo partly specified) the Activity (NCI-H1975 [1]) was 9.56%, the Activity (NCI-H1975 [2]) was 0% and the Activity (Pyruvate kinase PKM [3]) was “Active”. The Activity [4] was “Non-Toxic”, the IC50 (NCI-H1975 [5]) was 9 µM and the Activity (NCI-H1975 [6]) was 11.8%. For the same compound, the Activity (NCI-H1975 [7]) was 3.84%, the Activity (HCC827) was “Dose-Dependent Effect” and the Kd (Pyruvate kinase PKM [8]) was 28 µM. It also gave an Activity (NCI-H1975 [9]) of 62.2%, an Activity (A549 [10]) of 5.33% and an IC50 (NCI-H1975 [11]) of 8 µM. The Activity (NCI-H1975 [12]) was 37.3%, the Activity (NCI-H1975 [13]) was “Active” and the Activity [14] was “Non-Toxic”. For the same compound, the IC50 at 24 h (in vitro) was 99.5 µM, the Activity (NCI-H1975 [15]) was “Active” and the Activity (NCI-H1975 [16]) was 17.6%. For the same compound, the Activity (NCI-H1975 [17]) was “inactive”, the Activity (A549 [18]) was 11.8% and the Activity (NCI-H1975 [19]) was 8.24%.
